In US9714244B2, “Substituted pyrido[4,3-d]pyrimidines as Wee-1 inhibitors” (ALMAC DISCOVERY LIMITED, priority 2013, dated 2017):

What was measured:
[1] = target: Wee-1 kinase (Homo sapiens (Human), UniProt P30291); assay: Measurement of Wee-1 kinase activity (ADP-Glo); format: biochemical; details: read-out: Wee-1 IC50 activity
Protocol: Method 1: Measurement of Wee-1 kinase activity
In the measurement of Wee-1 activity, a commercial peptide Poly(Lys Tyr(4:1)) hydrobromide was purchased from Sigma Aldrich and used as the substrate. Activated Wee-1 kinase was purchased from Invitrogen (PV3817) and an ADP-Glo luminescent kit was purchased from Promega.
All reactions took place in […] volumes in reaction buffer containing 40 mM Tris-HCl and 20 mM magnesium chloride, supplemented with 0.1 mg/mL bovine serum albumin and 2 mM DTT. Compounds were serially diluted in buffer and 5 μL of each concentration pipetted into a white 384 well plate (Sigma Aldrich M6186). A 5 μL aliquot of the Wee-1 enzyme was added to each well and the plate centrifuged for 1 min to ensure mixing of the enzyme and inhibitor.
The plate was incubated at room temperature for 30 minutes before the addition of 2.0 μg/mL of substrate and 30 μM ATP in a 5 μL aliquot. The plate was centrifuged for one minute and incubated for 1 h at RT.
15 μL of ADP-Glo stop reagent was added to each well to quench the reaction and deplete unconverted ATP. The plate was incubated for a further 40 min in the dark at RT.
30 μL of ADP-Glo kinase detection reagent was added to each well, converting ADP to ATP, catalysing the generation of luciferin by luciferase. The plate was shaken for 1 min, and incubated in the dark for an additional hour.
Luminescence from each well was detected using the Biotek Synergy4 HD plate reader and the percentage inhibition of kinase activity calculated for each inhibitor tested. Positive (kinase only) and negative (no kinase) controls were added to each plate to ensure specific interaction of kinase and inhibitor. The IC50 concentration for each inhibitor was calculated by plotting the percentage kinase inhibition against concentration of inhibitor and the curve generated by non-linear regression fitting.

[2] = CLint estimates using human liver microsomes; format: in vitro ADME; details: pH 7.4, read-out: HLM activity (HLM CLint)
Protocol: Method for the Determination of CLint Estimates Using Human Liver Microsomes
Test compounds (final concentration=1 μM; final DMSO concentration=0.1%) were incubated in 0.1M phosphate buffer pH 7.4 with human liver microsomes (0.5 mg of protein/mL) at 37° C. Reactions were started by addition of NADPH in 0.1M phosphate buffer pH 7.4 (final concentration 1 mM). 40 μL aliquots were removed at 2, 5, 10, 15, 20, 30, 40 and 50 min. Reactions were quenched in 80 μL of ice-cold methanol. Samples were subsequently frozen overnight then centrifuged at 3500 rpm for 20 min at 4° C. The supernatants were removed and transferred into analytical plates and analysed by LC/MS/MS.
All samples were analysed on a Waters Acquity I-Class coupled to a Waters Xevo TQD mass spectrometer. A Waters BEH C18 2.1×50 mm 1.7 μm column was used and mobile phases were water and methanol containing 0.1% formic acid as modifier. Analysis was by multiple reaction monitoring and conditions were optimised for each test compound.
From a plot of ln peak area against time, the gradient of the line is determined. Subsequently, half-life and intrinsic clearance are calculated using the following equations.

[3] = tested on: phospho-cdc2 (Tyr15) in HT-29 cells; assay: Effect on phosphorylation of cdc2 at Tyr15 in HT-29 cells (PathScan ELISA); format: cell-based; details: Homo sapiens, HT-29, 8 h; HT29 cells, eight hours incubation; read-out: HT29 pCDC2 activity
Protocol: Method 2: Determining the effect of compounds on the phosphorylation of cdc2 at Tyr15
The colorectal cancer cell lines HT-29 and HCT-116 were purchased from the ATCC and routinely maintained in McCoy's Medium (Invitrogen) supplemented with 10% Foetal Calf Serum.
The cells were trypsinised from their growing vessel and counted, 100 μL of cell suspension containing 6000 cells was pipetted into black 96 well Co-star plates and incubated overnight to allow adherence to the surface at a temperature of 37° C. and an atmosphere of 5% CO2. Test compounds were formulated in DMSO and diluted in foetal calf serum supplemented medium. Incubating medium was removed by aspiration and diluted drug supplemented medium added to each well.
The plate was returned to the incubator for an additional eight hours at 37° C. and an atmosphere of 5% CO2. Post incubation, the drug supplemented medium was aspirated from each well and the cells were washed once in ice-cold phosphate buffered saline (PBS). 100 μL of cell lysis buffer (Cell Signalling Technologies #9803) containing 20 mM Tris, 150 mM NaCl, 1 mM EDTA, 1 mM EGTA, 1% Triton-X100, 2.5 mM sodium pyrophosphate, 1 mM glycerophosphate, 1 mM Na3VO4 and 1 μg/mL leupeptin was added to each well of the 96 well plate and incubated at 4° C. for 30 min. The samples on the plate were snap frozen at −80° C. until required.
Immediately before the continuation of the assay, the sample plate was thawed and centrifuged at 4° C. for 10 min and the supernatant transferred to secondary tubes or 96 well plate.
Cell supernatant was mixed in a ratio of 1:1 with sample dilutent buffer and vortexed for one minute. 100 μL of diluted sample was pipetted into pre-coated plates containing a rabbit polyclonal antibody for phospho-cdc2 (Tyr15) (Cell Signalling Technologies PathScan kit #7176). The plate was sealed and incubated overnight at 4° C.
The plate seal was removed and the well contents aspirated, followed by 3×5 min washes with 200 μL of diluted wash buffer. Between each wash the plate was tapped firmly onto blotting paper to ensure the removal of all kit solution. 100 μL of kit detection antibody was added to each well and the plate re-sealed and incubated at 37° C. for 1 h. Post incubation the plate was washed and processed in a similar manner to that previously described.
100 μL of horseradish peroxidise-linked secondary antibody was added to each test well, the plate sealed and incubated for thirty minutes at 37° C. Post incubation, the plate was washed as previously stated, followed by the addition of 100 μL of 3,3′,5,5′ tetramethylbenzidine (TMB reagent). The plate was sealed and incubated at RT for 30 min.
100 μL of stop solution was added to each well and the underside of the plate wiped with a lint-free tissue, prior to spectrophotometric determination. Absorbance from each well was read at 450 nm within 30 min of the addition of the stop solution.
The percentage of phospho-cdc2 was calculated compared to DMSO control and plotted versus the concentration of inhibitor using GraphPad Prism. Data was fitted using non-linear regression analysis and IC50 values generated.

Wee-1 kinase, sequence (P30291 whole entry): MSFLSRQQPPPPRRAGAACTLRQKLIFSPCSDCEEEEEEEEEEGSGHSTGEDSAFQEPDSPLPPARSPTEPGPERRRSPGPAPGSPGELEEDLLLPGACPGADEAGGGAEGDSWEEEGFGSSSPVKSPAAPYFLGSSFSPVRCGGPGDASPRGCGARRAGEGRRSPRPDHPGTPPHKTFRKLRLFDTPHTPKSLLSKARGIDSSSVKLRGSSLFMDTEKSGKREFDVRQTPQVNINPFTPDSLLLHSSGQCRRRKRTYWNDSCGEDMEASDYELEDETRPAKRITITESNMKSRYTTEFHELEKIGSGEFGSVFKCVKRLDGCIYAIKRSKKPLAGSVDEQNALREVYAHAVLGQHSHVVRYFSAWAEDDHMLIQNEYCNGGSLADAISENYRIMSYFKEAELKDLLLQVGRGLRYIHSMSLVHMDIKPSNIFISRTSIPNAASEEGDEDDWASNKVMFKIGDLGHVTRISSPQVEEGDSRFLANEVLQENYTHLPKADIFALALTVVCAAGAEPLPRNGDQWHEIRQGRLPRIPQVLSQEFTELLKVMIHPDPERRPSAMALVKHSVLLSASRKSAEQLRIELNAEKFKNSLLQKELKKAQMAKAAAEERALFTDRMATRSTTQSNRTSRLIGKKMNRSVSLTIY

SMILES | IC50 [1] [nM] | microsomal CLint at 1 μM [2] [µL/min/mg] | IC50 [3] [nM]
O=c1c2cnc(Nc3ccc(N4CCNCC4)cc3)nc2ccn1-c1cccnc1Cl [Example 3, 6-(2-Chloropyridin-3-yl)-2-((4-(piperazin-1-yl)phenyl)amino)pyrido[4,3-d]pyrimidin-5(6H)-one] | > 200 | ≤ 20 | 
CCN(CC)CCOc1ccc(Nc2ncc3c(=O)n(-c4c(Cl)cccc4Cl)ccc3n2)cc1 [Example 4, 6-(2,6-Dichlorophenyl)-2-((4-(2-(diethylamino)ethoxy)phenyl)amino)pyrido[4,3-d]pyrimidin-5(6H)-one] |  | > 20 | 100 to 1000
CC(=O)N1CCN(c2ccc(Nc3ncc4c(=O)n(-c5c(Cl)cccc5Cl)ccc4n3)cc2)CC1 [Example 5, 2-((4-(4-Acetylpiperazin-1-yl)phenyl)amino)-6-(2,6-dichlorophenyl)pyrido[4,3-d]pyrimidin-5(6H)-one] | 10 to 200 | ≤ 20 | 100 to 1000
O=c1c2cnc(Nc3ccc(N4CCS(=O)(=O)CC4)cc3)nc2ccn1-c1c(Cl)cccc1Cl [Example 6, 6-(2,6-Dichlorophenyl)-2-((4-(1,1-dioxidothiomorpholino)phenyl)amino)pyrido[4,3-d]pyrimidin-5(6H)-one] |  | > 20 | 100 to 1000
O=c1c2cnc(Nc3ccc(N4CCNCC4)cc3)nc2c(Br)cn1-c1c(Cl)cccc1Cl [Example 9, 8-Bromo-6-(2,6-dichlorophenyl)-2-((4-(piperazin-1-yl)phenyl)amino)pyrido[4,3-d]pyrimidin-5(6H)-one] | < 10 | ≤ 20 | 100 to 1000
Cc1cc(Nc2ncc3c(=O)n(-c4c(Cl)cccc4Cl)cc(C#CCO)c3n2)ccc1N1CCNCC1 [Example 14, 6-(2,6-Dichlorophenyl)-8-(3-hydroxyprop-1-yn-1-yl)-2-((3-methyl-4-(piperazin-1-yl)phenyl)amino)pyrido[4,3-d]pyrimidin-5(6H)-one] | < 10 | ≤ 20 | ≤ 100
CN1CCN(c2ccc(Nc3ncc4c(=O)n(-c5c(Cl)cccc5Cl)ccc4n3)cc2)CC1 [Example 15, 6-(2,6-Dichlorophenyl)-2-((4-(4-methylpiperazin-1-yl)phenyl)amino)pyrido[4,3-d]pyrimidin-5(6H)-one] |  | > 20 | 100 to 1000
O=c1c2cnc(Nc3ccc(N4CCN(CCO)CC4)cc3)nc2ccn1-c1c(Cl)cccc1Cl [Example 21, 6-(2,6-Dichlorophenyl)-2-((4-(4-(2-hydroxyethyl)piperazin-1-yl)phenyl)amino)pyrido[4,3-d]pyrimidin-5(6H)-one] | < 10 | > 20 | ≤ 100
NCC#Cc1cn(-c2c(Cl)cccc2Cl)c(=O)c2cnc(Nc3ccc(N4CCOCC4)cc3)nc12 [Example 22, 8-(3-Aminoprop-1-yn-1-yl)-6-(2,6-dichlorophenyl)-2-((4-morpholinophenyl)amino)pyrido[4,3-d]pyrimidin-5(6H)-one] | < 10 | > 20 | ≤ 100
O=c1c2cnc(Nc3ccc(N4CCNCC4)cc3)nc2c(-c2cccnc2)cn1-c1c(Cl)cccc1Cl [Example 23, 6-(2,6-Dichlorophenyl)-2-((4-(piperazin-1-yl)phenyl)amino)-8-(pyridin-3-yl)pyrido[4,3-d]pyrimidin-5(6H)-one] | < 10 | > 20 | ≤ 100
Cc1cc(Nc2ncc3c(=O)n(-c4ccccc4Cl)ccc3n2)ccc1N1CCNCC1 [Example 24, 6-(2-Chlorophenyl)-2-((3-methyl-4-(piperazin-1-yl)phenyl)amino)pyrido[4,3-d]pyrimidin-5(6H)-one] | < 10 | ≤ 20 | 100 to 1000
NCc1cccc(Nc2ncc3c(=O)n(-c4c(Cl)cccc4Cl)ccc3n2)c1 [Example 25, 2-((3-(Aminomethyl)phenyl)amino)-6-(2,6-dichlorophenyl)pyrido[4,3-d]pyrimidin-5(6H)-one] |  | > 20 | ≥ 1000
CN1CCN(c2cccc(Nc3ncc4c(=O)n(-c5c(Cl)cccc5Cl)ccc4n3)c2)CC1 [Example 26, 6-(2,6-Dichlorophenyl)-2-((3-(4-methylpiperazin-1-yl)phenyl)amino)pyrido[4,3-d]pyrimidin-5(6H)-one] |  | > 20 | ≥ 1000
O=c1c2cnc(Nc3ccc(N4CCNCC4)c(Cl)c3)nc2ccn1-c1c(Cl)cccc1Cl [Example 27, 2-((3-Chloro-4-(piperazin-1-yl)phenyl)amino)-6-(2,6-dichlorophenyl)pyrido[4,3-d]pyrimidin-5(6H)-one] | < 10 | ≤ 20 | 100 to 1000
CC(=O)Nc1cn(-c2c(Cl)cccc2Cl)c(=O)c2cnc(Nc3ccc(N4CCNCC4)cc3)nc12 [Example 28, N-(6-(2,6-Dichlorophenyl)-5-oxo-2-((4-(piperazin-1-yl)phenyl)amino)-5,6-dihydropyrido[4,3-d]pyrimidin-8-yl)acetamide] | > 200 |  | 
O=c1c2cnc(Nc3ccc(N4CCNCC4)c(F)c3)nc2ccn1-c1c(Cl)cccc1Cl [Example 29, 6-(2,6-Dichlorophenyl)-2-((3-fluoro-4-(piperazin-1-yl)phenyl)amino)pyrido[4,3-d]pyrimidin-5(6H)-one] | < 10 | ≤ 20 | ≤ 100
CN1CCN(c2ccc(Nc3ncc4c(=O)n(-c5c(Cl)cccc5Cl)ccc4n3)cn2)CC1 [Example 31, 6-(2,6-Dichlorophenyl)-2-((6-(4-methylpiperazin-1-yl)pyridin-3-yl)amino)pyrido[4,3-d]pyrimidin-5(6H)-one] |  | > 20 | 100 to 1000
CN1CCN(C(=O)c2ccc(Nc3ncc4c(=O)n(-c5c(Cl)cccc5Cl)ccc4n3)cc2)CC1 [Example 32, 6-(2,6-Dichlorophenyl)-2-((4-(4-methylpiperazine-1-carbonyl)phenyl)amino)pyrido[4,3-d]pyrimidin-5(6H)-one] | 10 to 200 |  | 100 to 1000
